Laboratory results as given in patent US20260097111A1, “ETHER LIPIDS FOR HYPERACTIVATION OF MAMMALIAN DENDRITIC CELLS” (priority 2022, published 2026).

Legend:
Assay type in all cases: cell-based
[1] = tested on: human monocyte-derived dendritic cells (moDCs); assay: IL-1β secretion by human moDCs treated with lipid and R848; conditions: human moDCs primed with R848 for 3 hours, then nigericin; FIG. 2B
Description: (§1) Human monocytes were isolated from Leukopaks purchased from Miltenyi using the StraightFrom Leukopak CD14 microbead kit (Miltenyi). Isolations were completed following manufacturer's instructions. Monocytes were then aliquoted and frozen in fetal bovine serum containing 10% dimethyl sulfoxide. For studies with monocyte-derived dendritic cell (moDC) cultures, monocytes were thawed and cultured in RPMI medium containing 10% FBS, 50 units/mL penicillin, […] streptomycin, 2 mM L-glutamine, 1 mM sodium pyruvate, […] beta-mercaptoethanol, 10 mM HEPES, and Gibco MEM non-essential amino acids (R10 media). To differentiate monocytes into moDCs, recombinant human GM-CSF (50 ng/mL) and IL-4 (25 ng/mL) were added to R10 media. Cells were cultured for 6 days with GM-CSF and IL-4, with an additional cell feeding with R10 containing GM-CSF and IL-4 on day 3.
Six days after differentiation, moDC were collected and counted. Cells were plated into 96-well flat-bottom plates at 1×10^5 cells/well. Cells were treated with or without 1 μg/mL R848 (final) and with or without a hyperactivating lipid (or vehicle control). In some experiments, MCC950, an inhibitor of the NLRP3 inflammasome, was added at a final concentration of 10 uM. In some experiments, nigericin, which causes NLRP3 inflammasome activation and subsequent pyroptosis, was used as a positive control at 20 uM. Cells and stimuli totaled a final volume of […].
Lipid stocks were then further diluted in PBS to treat cells.
(§2) After an overnight incubation, cells and culture supernatant were used for downstream readouts. One hundred and fifty microliters of cell supernatant were collected. Viability was measured using the CellTiter-Glo assay (Promega) which measures ATP content from cells. Fifty microliters of CellTiter-Glo reagent were added to 50 μL of cells. Luminescence was quantified on a SpectraMax m5e plate reader using an integration time of 500 milliseconds. Viability data were set relative to control conditions where cells were treated with only R848. To measure IL-1β secretion, the human IL-1β Lumit kit (Promega) was used to assay cell culture supernatant. Culture supernatant samples were incubated with enzyme-linked antibodies in a 384-well plate for 1 hour before addition of luminescent substrate. Samples were measured for luminescence with an integration time of 500 milliseconds. IL-1β concentrations of samples was determined by interpolation from a standard curve using 4-parameter logistic regression analysis. Studies were performed on three different human donor samples, and each biological condition was tested in triplicate. Graphed data represent means from each donor.
as §1, with “Human moDC Production. Human” for “Human”, “(Miltenyi) according to the” for “(Miltenyi). Isolations were completed following”, “To differentiate” for “For studies with”, “pyruvate, and” for “pyruvate,”, “beta-mercaptoethanol” for “beta-mercaptoethanol, 10 mM HEPES, and Gibco MEM non-essential amino acids”
Hyperactivating Lipid Formulation—Compound 10. Lipid stocks were formulated at 200 μg/mL lipid in 5% Kolliphor P407 (KP407) in PBS.

human moDCs [2] = assay: Cell viability of human moDCs (CellTiter-Glo); conditions: human
Description: as §2
Measurement of Cytokine Secretion and Cell Viability. After an overnight incubation, cells and culture supernatant were used for downstream readouts. One hundred and fifty microliters of cell culture supernatant were collected. Viability was measured using the CellTiter-Glo assay (Promega) which measures ATP content from cells. Fifty microliters of CellTiter-Glo reagent were added to 50 μL of cells. Luminescence was quantified on a SpectraMax m5e plate reader using an integration time of 500 milliseconds. Viability data were set relative to control conditions where cells were treated with only R848. To measure IL-1β secretion, the human IL-1β Lumit kit (Promega) was used. […] Samples were measured for luminescence with an integration time of 500 milliseconds. IL-1β concentrations of samples was determined by interpolation from a standard curve using 4-parameter logistic regression analysis. […]

human moDCs [3] = assay: moDC viability by LDH release and CellTiter-Glo 2.0
Description: Monocyte Isolation, Storage, and Differentiation into moDC.
CellTiter-Glo 2.0 Cell Viability Assay. As an additional method to measure cell viability, CellTiter-Glo 2.0 Cell Viability Assay kit from Promega was used. CellTiter-Glo 2.0 reagent was used according to instructions of the manufacturer. Briefly, frozen reagent was thawed at 4° C. and aliquoted. Aliquots were stored at 4° C. in the dark. After removing 150 μL of the cell culture volume for use in other assays, cells were lysed with 50 μL/well CellTiter-Glo reagent by pipetting up and down. After incubating in the dark at RT for 10 min, samples were transferred to white opaque 96-well plates. Luminescence was measured for 500 ms/well using a Spectramax M3 plate reader. Luminescence values were normalized to the mean values of control samples and multiplied 100-fold to report values as percentage viability.

For `CO[C@@H]1C[C@@H](C[C@H]2CC[C@H](C)[C@H]([C@@H](C)C(=O)O)O2)O[C@]2(O[C@](C)([C@H]3CC[C@@](C)([C@@H]4O[C@@H]([C@H]5O[C@@](O)(CO)[C@H](C)C[C@@H]5C)C[C@@H]4C)O3)C[C@H]2C)[C@@H]1C` [nigericin], the IL-1β secretion [1] was “IL-1β was produced”, the “decrease in cell viability” value (human moDCs [2]) was “approximately 50%” and the “cell viability (CellTiter-Glo)” value (human moDCs [3]) was “below 2%”. For the same compound, the “cell viability (LDH release assay)” value (human moDCs [3]) was “below 75%”.
